Measurements: article PMC2074590 (British Journal of Cancer, 1996)
Like-named read-outs stand apart in the source and are kept apart here.

How the values were obtained:
[1] = system: endometrial proliferation; set-up: method as in Dukes et al., 1993; conditions: primates, at serum concentrations similar to the present study; ref Dukes et al., 1993; cited from earlier work
[2] = system: advanced breast cancer resistant to tamoxifen; assay: Tumour response to therapy, UICC criteria; format: in vivo, human; set-up: key to Response to 182780: PD: progressive disease; NC: no change; PR: partial response
Experimental: Bridsh Journal of Cancer (1996) 74, 300-308 ? […] The agent was administered as a monthly depot intramuscular injection. […] The study was approved by the ethics committees of each clinical centre. Patients were eligible for the study if they were post- menopausal and age less than 81 years, with histologically verified breast cancer. […] Patients were excluded if they had serious intercurrent disease, a WHO performance status of greater than 2, and a life expectancy of less than 3 months or had received previous cytotoxic chemotherapy for advanced breast cancer. […] Patients 5-19 received 250 mg month-1 i.m. from the outset. […] Tumour response to therapy was evaluated according to UICC criteria (Hayward et al., 1977). To qualify for the 'no change' category, tumour growth had to stabilise for more than 6 months (Howell et al., 1988; Robertson et al., 1989). Body weight was recorded at each monthly review in the majority of patients. […] The procedure was applied after solid base clean up of a diethyl ether/hexane extract of serum. The study limit of quantification was 0.68 ng ml-'. […] Gonadotrophins follicle-stimulating hormone and lutenising hormone (FSH and LH) and SHBG were measured by RIA in the Regional Radioimmunoassay Laboratory of the University Hospital of South Manchester. Prolactin was measured by immunoradiometric assay using reagents supplied by Netria. Total cholesterol levels were determined enzymatically using a commercially available reagent (Diamed, Switzerland). Triglyceride levels were determined by the glyceryl phosphate oxidase-peroxidase-antiperox- idase method using a commercially available kit (Boehringer Mannheim, Germany). High-density lipoprotein (HDL) cholesterol levels were measured after pretreatment of the serum samples with buffered magnesium phosphotungstate, which selectively precipitates low-density lipoprotein (LDL) cholesterol, very low-density lipoprotein (VLDL) cholesterol and chylomicrons, leaving HDL cholesterol in the super- natant. Serum levels of LDL cholesterol were calculated using the Friedewald equation (Friedewald et al., 1972). Endometrial assessment Endometrial thickness was measured in transverse section by transabdominal ultrasound using a Siemens Sonoline SL2 with a 3.5 MHz sector probe. Baseline and repeat scans at 3-6 monthly intervals were performed in five patients. […] Pharmacokinectic data were analysed using para- metric statistics. Data relating to body weight, serum gonadotrophin, SHBG and lipid levels were analysed using non-parametric statistics. The null hypothesis was rejected at a probability level of P<0.05. […] However, samples were not available between day 2 and day 8.

[3] = system: endometrial proliferation; set-up: method as in Thomas et al., 1993; conditions: short-term studies in women, at serum concentrations similar to the present study; ref Thomas et al., 1993; cited from earlier work
breast cancer cells = system: breast cancer cells; set-up: method as in Wakeling and Bowler, 1987, 1988; conditions: ref Wakeling and Bowler, 1987, 1988; cited from earlier work
ER = system: ER; set-up: method as in Wakeling et al., 1991; conditions: ref Wakeling et al., 1991; cited from earlier work
[4] = Body weight at monthly review; format: in vivo, human
Experimental: Bridsh Journal of Cancer (1996) 74, 300-308 ? […] The agent was administered as a monthly depot intramuscular injection. […] The study was approved by the ethics committees of each clinical centre. Patients were eligible for the study if they were post- menopausal and age less than 81 years, with histologically verified breast cancer. […] Patients were excluded if they had serious intercurrent disease, a WHO performance status of greater than 2, and a life expectancy of less than 3 months or had received previous cytotoxic chemotherapy for advanced breast cancer. […] Patients 5-19 received 250 mg month-1 i.m. from the outset. […] Tumour response to therapy was evaluated according to UICC criteria (Hayward et al., 1977). To qualify for the 'no change' category, tumour growth had to stabilise for more than 6 months (Howell et al., 1988; Robertson et al., 1989). Body weight was recorded at each monthly review in the majority of patients. […] The procedure was applied after solid base clean up of a diethyl ether/hexane extract of serum. The study limit of quantification was 0.68 ng ml-'. […] Gonadotrophins follicle-stimulating hormone and lutenising hormone (FSH and LH) and SHBG were measured by RIA in the Regional Radioimmunoassay Laboratory of the University Hospital of South Manchester. Prolactin was measured by immunoradiometric assay using reagents supplied by Netria. Total cholesterol levels were determined enzymatically using a commercially available reagent (Diamed, Switzerland). Triglyceride levels were determined by the glyceryl phosphate oxidase-peroxidase-antiperox- idase method using a commercially available kit (Boehringer Mannheim, Germany). High-density lipoprotein (HDL) cholesterol levels were measured after pretreatment of the serum samples with buffered magnesium phosphotungstate, which selectively precipitates low-density lipoprotein (LDL) cholesterol, very low-density lipoprotein (VLDL) cholesterol and chylomicrons, leaving HDL cholesterol in the super- natant. Serum levels of LDL cholesterol were calculated using the Friedewald equation (Friedewald et al., 1972). […]

For `C[C@]12CC[C@@H]3c4ccc(O)cc4C[C@@H](CCCCCCCCC[S+]([O-])CCCC(F)(F)C(F)(F)F)[C@H]3[C@@H]1CC[C@@H]2O` (some centres unmarked) [ICI 182780, 7a-[9(4,4,5,5,pentafluoropentyl-sulphinyl)nonyl]oestra-1 ,3,5,(10)-triene-3,17,B-diol], the “Effect on endometrial proliferation” value [1] is given as “inhibited endometrial proliferation”, the “Median duration of response” value ([2]; 13 responding patients) is given as 25 months and the Partial response rate ([2]; 19 patients) is given as 37%. For the same molecule, the Progression rate ([2]; 19 patients) was 31%, the “Patients responding (partial response + no change)” value ([2]; 19 patients, after progression on tamoxifen) was 69% and the “No change response rate” value ([2]; 19 patients, stabilisation for more than 6 months) was 32%. The Duration of response ([2]; NC patient with 61 months adjuvant tamoxifen (A61, = patient 15), from Table III) was at least 23 months, the “Patients still in remission and continuing treatment” value ([2]; after 30-33 months) was “five” and the “Association between duration of treatment with tamoxifen and subsequent response” value ([2]; in vivo) was “no association”. For the same molecule, the “Responses in women who progressed while receiving tamoxifen for advanced breast cancer” value ([2]; in vivo) was “six of the nine”, the “Responses in women who relapsed after tamoxifen as adjuvant therapy” value ([2]; in vivo) was “seven of the ten” and the “Number of patients with progression” value ([2]; of 19 patients) was 6 patients. The “Response to 182780” value ([2]; patient 1 (donor kappa)) was “PD”, the Duration of response ([2]; patient 1, PD) was under 2 months and the “Response to 182780” value ([2]; patient 2 (donor eta)) was “NC”. The Duration of response ([2]; patient 2, NC) was 29 months, the “Response to 182780” value ([2]; patient 3 (donor mu)) was “PR” and the Duration of response ([2]; patient 3, PR) was 12 months. The “Response to 182780” value ([2]; patient 4 (donor lambda)) was “PD”, the Duration of response ([2]; patient 4, PD) was under 2 months and the “Response to 182780” value ([2]; patient 5 (donor sigma)) was “PR”. For the same molecule, the Duration of response ([2]; patient 5, PR) was 8 months, the “Response to 182780” value ([2]; patient 6 (donor delta)) was “PR” and the Duration of response ([2]; patient 6, PR) was 3 months. For the same molecule, the “Response to 182780” value ([2]; patient 7 (donor gamma)) was “PD”, the Duration of response ([2]; patient 7, PD) was under 2 months and the “Response to 182780” value ([2]; patient 8 (donor theta)) was “PR”. The Duration of response ([2]; patient 8, PR) was 25 months, the “Response to 182780” value ([2]; patient 9 (NT)) was “PD” and the Duration of response ([2]; patient 9, PD) was under 2 months. For the same molecule, the “Response to 182780” value ([2]; patient 10 (donor iota)) was “PR”, the Duration of response ([2]; patient 10, PR, + = continuing) was at least 33 months and the “Response to 182780” value ([2]; patient 11 (donor epsilon)) was “PD”. The Duration of response ([2]; patient 11, PD) was under 2 months, the “Response to 182780” value ([2]; patient 12 (donor nu)) was “NC” and the Duration of response ([2]; patient 12, NC, + = continuing) was at least 33 months. For the same molecule, the “Response to 182780” value ([2]; patient 13 (donor tau)) was “PD”, the Duration of response ([2]; patient 13, PD) was under 2 months and the “Response to 182780” value ([2]; patient 14 (donor xi)) was “PR”. The Duration of response ([2]; patient 14, PR, + = continuing) was at least 32 months, the “Response to 182780” value ([2]; patient 15 (donor omicron)) was “NC” and the “Response to 182780” value ([2]; patient 16 (donor rho)) was “PR”. For the same molecule, the Duration of response ([2]; patient 16, PR) was 25 months, the “Response to 182780” value ([2]; patient 17 (donor zeta)) was “NC” and the Duration of response ([2]; patient 17, NC) was 9 months. For the same molecule, the “Response to 182780” value ([2]; patient 18 (donor beta)) was “NC”, the Duration of response ([2]; patient 18, NC, + = continuing) was at least 30 months and the “Response to 182780” value ([2]; patient 19 (donor pi)) was “NC”. For the same molecule, the Duration of response ([2]; patient 19, NC, + = continuing) was at least 30 months, the “Time to objective disease progression in unresponsive patients” value ([2]; six patients unresponsive de novo) was at most 2 months and the “Effect on endometrial proliferation” value [3] was “inhibited endometrial proliferation”. The “Potency as inhibitor of cell growth in vitro relative to tamoxifen” value (breast cancer cells) was “up to two orders of magnitude more potent than tamoxifen”, the “Potency and affinity for the ER relative to ICI 164384” value (ER) was “greater potency and affinity for the ER” and the “Mean body weight (s.d.)” value ([4]; after 10 months, n = 9) was 64.5 ± 17.2 kg. The “Mean body weight (s.d.)” value ([4]; after 16 months, n=9) was 64.2 ± 18.3 kg and the “Change in body weight during treatment” value ([4]; baseline mean 63.8 kg (n=13)) was “no significant changes”.
